Source: the CheMixHub viscosity set

Experiment: xn = mol fraction of the nth substance listed

CCOC(=O)c1ccccc1 + CCCCO
viscosity [mPa·s], 101.3 kPa
Conditions | x1 = 0.0664 | x1 = 0.1379 | x1 = 0.2152 | x1 = 0.299 | x1 = 0.3901 | x1 = 0.4897 | x1 = 0.5988 | x1 = 0.719 | x1 = 0.852
303 K | 2.029 | 2.002 | 1.967 | 1.935 | 1.902 | 1.874 | 1.839 | 1.809 | 1.78
308 K | 1.87 | 1.837 | 1.814 | 1.783 | 1.754 | 1.713 | 1.679 | 1.646 | 1.618
313 K | 1.599 | 1.582 | 1.567 | 1.559 | 1.54 | 1.52 | 1.499 | 1.484 | 1.47
318 K | 1.444 | 1.439 | 1.426 | 1.42 | 1.407 | 1.4 | 1.39 | 1.381 | 1.372
323 K | 1.324 | 1.318 | 1.309 | 1.301 | 1.29 | 1.284 | 1.274 | 1.269 | 1.259

CCCCCl + CCCCCCCCCC
298 K, 101.3 kPa
Conditions | viscosity [mPa·s]
x2 = 0.1032 | 0.4681
x2 = 0.202 | 0.5006
x2 = 0.3087 | 0.5437
x2 = 0.3992 | 0.5768
x2 = 0.5065 | 0.6297
x2 = 0.5992 | 0.6636
x2 = 0.6974 | 0.7109
x2 = 0.7967 | 0.7607
x2 = 0.8968 | 0.811

C1=CCCCC1 + ClC(Cl)Cl
303.15 K, 101 kPa
Conditions | viscosity [mPa·s]
x1 = 0.1005 | 0.62
x1 = 0.2478 | 0.604
x1 = 0.3282 | 0.595
x1 = 0.4351 | 0.585
x1 = 0.4917 | 0.581
x1 = 0.629 | 0.575
x1 = 0.7454 | 0.573
x1 = 0.8452 | 0.571

CC1CCCCC1 + CC(C)CC(C)(C)C
viscosity [mPa·s], 101 kPa
Conditions | 298.15 K | 303.15 K | 308.15 K
x1 = 0.1032 | – | 0.462 | –
x1 = 0.105 | – | 0.466 | 0.438
x1 = 0.201 | – | 0.478 | –
x1 = 0.221 | – | 0.4798 | –
x1 = 0.3024 | 0.522 | 0.492 | 0.462
x1 = 0.399 | – | 0.5062 | –
x1 = 0.4039 | 0.539 | 0.508 | 0.476
x1 = 0.4974 | – | 0.524 | –
x1 = 0.4998 | 0.556 | 0.523 | 0.491
x1 = 0.5998 | – | 0.5431 | –
x1 = 0.6064 | 0.577 | 0.543 | 0.509
x1 = 0.6991 | 0.597 | 0.562 | 0.526
x1 = 0.7018 | – | 0.5656 | –
x1 = 0.8004 | 0.62 | 0.583 | 0.546
x1 = 0.8012 | – | 0.5892 | –
x1 = 0.8991 | – | 0.6154 | –
x1 = 0.9007 | 0.648 | 0.608 | 0.568

CCC(C)CO (stereo unspecified) + O
298.15 K, 101 kPa
Conditions | viscosity [mPa·s]
x2 = 0.0025 | 4.797
x2 = 0.0548 | 4.447
x2 = 0.0985 | 4.284
x2 = 0.1421 | 4.163
x2 = 0.1741 | 4.101
x2 = 0.1943 | 4.07
x2 = 0.2403 | 4.025
x2 = 0.2657 | 4.011
x2 = 0.2859 | 4.01
x2 = 0.2923 | 4.005
x2 = 0.3149 | 4.005

CC1CCCCC1 + CCCCCCCCCC
viscosity [mPa·s], 101 kPa
Conditions | 293.15 K | 298.15 K | 303.15 K | 308.15 K
x1 = 0.0406 | 0.9179 | 0.8528 | 0.7888 | –
x1 = 0.1014 | – | 0.843 | 0.787 | 0.731
x1 = 0.2029 | 0.879 | 0.8207 | 0.76 | –
x1 = 0.2034 | – | 0.824 | 0.77 | 0.716
x1 = 0.2805 | 0.8623 | 0.8054 | 0.747 | –
x1 = 0.3035 | – | 0.806 | 0.753 | 0.7
x1 = 0.3569 | 0.8458 | 0.7898 | 0.7352 | –
x1 = 0.4055 | – | 0.787 | 0.735 | 0.684
x1 = 0.4409 | 0.8287 | 0.7729 | 0.723 | –
x1 = 0.5004 | – | 0.769 | 0.719 | 0.669
x1 = 0.5991 | 0.7985 | 0.7421 | 0.7008 | –
x1 = 0.5998 | – | 0.751 | 0.702 | 0.654
x1 = 0.6756 | 0.7845 | 0.7282 | 0.6906 | –
x1 = 0.7041 | – | 0.731 | 0.684 | 0.637
x1 = 0.7618 | 0.7694 | 0.7135 | 0.6796 | –
x1 = 0.8039 | – | 0.713 | 0.667 | 0.621
x1 = 0.8475 | 0.7548 | 0.7009 | 0.6683 | –
x1 = 0.8993 | – | 0.695 | 0.651 | 0.606
x1 = 0.9148 | 0.7428 | 0.6913 | 0.6592 | –

CCOC(=O)c1ccccc1 + CCCCCC
101 kPa
Conditions | viscosity [mPa·s]
298.15 K, x2 = 0.0271 | 1.845
298.15 K, x2 = 0.1115 | 1.528
298.15 K, x2 = 0.1588 | 1.375
298.15 K, x2 = 0.2058 | 1.242
298.15 K, x2 = 0.3029 | 1.008
298.15 K, x2 = 0.3991 | 0.828
298.15 K, x2 = 0.4898 | 0.688
298.15 K, x2 = 0.5921 | 0.57
298.15 K, x2 = 0.6377 | 0.527
298.15 K, x2 = 0.6782 | 0.491
298.15 K, x2 = 0.7316 | 0.456
298.15 K, x2 = 0.773 | 0.426
298.15 K, x2 = 0.8227 | 0.394
298.15 K, x2 = 0.8654 | 0.371
298.15 K, x2 = 0.9101 | 0.354
298.15 K, x2 = 0.9517 | 0.341
303.15 K, x1 = 0.0927 | 0.329
303.15 K, x1 = 0.1853 | 0.38
303.15 K, x1 = 0.2811 | 0.448
303.15 K, x1 = 0.3781 | 0.531
303.15 K, x1 = 0.4761 | 0.634
303.15 K, x1 = 0.5765 | 0.764
303.15 K, x1 = 0.6794 | 0.93
303.15 K, x1 = 0.7852 | 1.147
303.15 K, x1 = 0.8902 | 1.41
308.15 K, x1 = 0.0927 | 0.315
308.15 K, x1 = 0.1853 | 0.366
308.15 K, x1 = 0.2811 | 0.429
308.15 K, x1 = 0.3781 | 0.508
308.15 K, x1 = 0.4761 | 0.603
308.15 K, x1 = 0.5765 | 0.72
308.15 K, x1 = 0.6794 | 0.877
308.15 K, x1 = 0.7852 | 1.065
308.15 K, x1 = 0.8902 | 1.303
308.15 K, x2 = 0.0828 | 1.413
308.15 K, x2 = 0.1328 | 1.29
308.15 K, x2 = 0.171 | 1.201
308.15 K, x2 = 0.2301 | 1.074
308.15 K, x2 = 0.2802 | 0.973
308.15 K, x2 = 0.3274 | 0.887
308.15 K, x2 = 0.3722 | 0.812
308.15 K, x2 = 0.4224 | 0.741
308.15 K, x2 = 0.4708 | 0.677
308.15 K, x2 = 0.5165 | 0.624
308.15 K, x2 = 0.5609 | 0.576
308.15 K, x2 = 0.6066 | 0.533
308.15 K, x2 = 0.6587 | 0.489
308.15 K, x2 = 0.7033 | 0.457
308.15 K, x2 = 0.7489 | 0.426
308.15 K, x2 = 0.7953 | 0.397
308.15 K, x2 = 0.8419 | 0.372
308.15 K, x2 = 0.8794 | 0.356
308.15 K, x2 = 0.9354 | 0.331
313.15 K, x1 = 0.0927 | 0.295
313.15 K, x1 = 0.1853 | 0.346
313.15 K, x1 = 0.2811 | 0.406
313.15 K, x1 = 0.3781 | 0.476
313.15 K, x1 = 0.4761 | 0.562
313.15 K, x1 = 0.5765 | 0.673
313.15 K, x1 = 0.6794 | 0.815
313.15 K, x1 = 0.7852 | 0.99
313.15 K, x1 = 0.8902 | 1.2
318.15 K, x2 = 0.0471 | 1.244
318.15 K, x2 = 0.1005 | 1.133
318.15 K, x2 = 0.149 | 1.036
318.15 K, x2 = 0.2038 | 0.939
318.15 K, x2 = 0.252 | 0.861
318.15 K, x2 = 0.3057 | 0.781
318.15 K, x2 = 0.352 | 0.718
318.15 K, x2 = 0.4057 | 0.652
318.15 K, x2 = 0.4516 | 0.602
318.15 K, x2 = 0.5027 | 0.55
318.15 K, x2 = 0.5475 | 0.51
318.15 K, x2 = 0.5991 | 0.47
318.15 K, x2 = 0.6439 | 0.439
318.15 K, x2 = 0.6933 | 0.41
318.15 K, x2 = 0.7382 | 0.387
318.15 K, x2 = 0.7869 | 0.364
318.15 K, x2 = 0.8296 | 0.346
318.15 K, x2 = 0.878 | 0.327

Cc1cccc([N+](=O)[O-])c1 + c1ccccc1
303.15 K, 101.33 kPa
Conditions | viscosity [mPa·s]
x1 = 0.2 | 0.7
x1 = 0.395 | 0.85
x1 = 0.599 | 1.09
x1 = 0.804 | 1.44
